This note sets out measurements from patent publication US9714243B2, “4-pyridinonetriazine derivatives as HIV integrase inhibitors” (Merck Sharp & Dohme Corp., priority 2012, dated 2017).

Molecules are shown by their SMILES. Where two headings read alike, the source gives them in different places.

This experiment relates to HIV-1 (NL4-3 strain). In words: Assay for inhibition of HIV replication (ViKinG; infected MT4-GFP cells). Type of experiment: cell-based. How it is done: Assay for inhibition of HIV replication
MT4-GFP cells (250,000 cells/ml) were bulk-infected with HIV-1 (NL4-3 strain) at low multiplicity of infection (MOI) in RPMI+10% FBS for 24 hours. […] Test compounds were serial-diluted in DMSO on ECHO. The infected MT4-GFP cells were added to a 384-well poly-D-lysine coated black plate with clear bottom in which the diluted test compounds were placed. The cells were seeded at 8,000 cells per well and the final DMSO concentration was 0.4%. The infected cells (Green GFP cells) were quantified at both 24 and 48 hours post incubation using Acumen eX3. Viral reproductive ratio (R0) was determined using the number of infected cells at 48 hours divided by the number of infected cells at 24 hours. Percent viral growth inhibition was calculated by [1−(R−Rtripledrug)/(RDMSO−Rtripledrug)]*100. Compound potency IP or IC50 was determined by a 4-parameter dose response curve analysis.

Setting [1] is: Human immunodeficiency virus 1, NL43, MT4-GFP cells infected with HIV-1 NL4-3, 10% normal human serum (NHS), read-out: ViKinG IP (nM) with 10% NHS.
[2] abbreviates: Human immunodeficiency virus 1, NL43, MT4-GFP cells infected with HIV-1 NL4-3, 100% normal human serum (NHS), read-out: ViKinG IP (nM) with 100% NHS.
Where [3] appears, read: MT4-GFP cells infected with HIV-1 NL4-3, 0% normal human serum (NHS), read-out: ViKinG IP (nM) with 0% NHS.
The mark [4] stands for this setting: MT4-GFP cells infected with HIV-1 NL4-3, 10% normal human serum (NHS), read-out: ViKinG IP (nM) with 10% NHS.
The mark [5] stands for this setting: MT4-GFP cells infected with HIV-1 NL4-3, 100% normal human serum (NHS), read-out: ViKinG IP (nM) with 100% NHS.
Setting [6] is: Human immunodeficiency virus 1, NL43, MT4-GFP cells infected with HIV-1 NL4-3, 0% normal human serum (NHS), read-out: ViKinG IP (nM) with 0% NHS.

Regarding `CCOP(=O)(OCC)C1CCCC2(C1)N(CC)C(=O)c1c(O)c(=O)c(-c3nnc(Cc4ccc(F)cc4F)s3)cn1N2C` (stereo not drawn) [Compound 25], the IC50 under setting [1] came out at 40.5 nM.
`CCN1C(=O)c2c(O)c(=O)c(-c3nnc(Cc4ccc(F)cc4F)s3)cn2N(C)C12CCC(OC)CC2` (stereo not drawn) [Compound 26]: the IC50 under setting [1] amounted to 9.22 nM, the IC50 under setting [2] amounted to 115 nM and the IC50 under setting [3] is 2.83 nM.
On to `CCN1C(=O)c2c(O)c(=O)c(-c3nnc(Cc4ccc(F)cc4F)s3)cn2N(C)C12CCC(OC)CC2` (stereo not drawn) [Compound 27], for which the IC50 turned out to be 9.24 nM under setting [3], 11.5 nM under setting [4] and 191 nM under setting [5].
Regarding `CCN1C(=O)c2c(O)c(=O)c(-c3nnc(Cc4ccc(F)cc4F)s3)cn2N(C)C12CC[C@H](C(=O)OC)[C@H](C)C2` (stereo partly drawn) [Compound 30], under setting [4], the IC50 was determined as 13.1 nM.
On to `CCN1C(=O)c2c(O)c(=O)c(-c3nnc(Cc4ccc(F)cc4F)s3)cn2N(C)C12CC[C@H](C(=O)OC)[C@H](C)C2` (stereo partly drawn) [Compound 31], for which the IC50 under setting [4] came out at 32.2 nM.
For `CCN1C(=O)c2c(O)c(=O)c(-c3nnc(Cc4ccc(F)cc4F)s3)cn2N(C)C12CC[C@@H](C(=O)OC)[C@H](C)C2` (stereo partly drawn) [Compound 32], the IC50 under setting [1] came to 21.1 nM.
On to `CCN1C(=O)c2c(O)c(=O)c(-c3nnc(Cc4ccc(F)cc4F)s3)cn2N(C)C12CC[C@@H](C(=O)OC)[C@H](C)C2` (stereo partly drawn) [Compound 33], for which, under setting [4], the IC50 turned out to be 29 nM.
`CCN1C(=O)c2c(O)c(=O)c(-c3nnc(Cc4ccc(F)cc4F)s3)cn2N(C)C12CCC(c1n[nH]c(=O)o1)CC2` (stereo not drawn) [Compound 34]: the IC50 by setting is: under setting [1], 23.6 nM; under setting [2], 180 nM.
As for `CCOC(=O)C1CC2(CC1(C)C)N(CC)C(=O)c1c(O)c(=O)c(-c3nnc(Cc4ccc(F)cc4F)s3)cn1N2C` (stereo not drawn) [Compound 35], the IC50 under setting [1] is 100 nM.
Consider `CCN1C(=O)c2c(O)c(=O)c(-c3nnc(Cc4ccc(F)cc4F)s3)cn2N(C)C12C[C@H]1CC(CC(=O)OC)C[C@H]1C2` (stereo partly drawn) [Compound 36], for which the IC50 under setting [1] stood at 52.6 nM.
In the case of `CCOP(=O)(OCC)C1CCC2(C1)N(CC)C(=O)c1c(O)c(=O)c(-c3nnc(Cc4ccc(F)cc4F)s3)cn1N2C` (stereo not drawn) [Compound 37], the IC50 is 186 nM under setting [2] and 18.2 nM under setting [4].
On to `CCOP(=O)(OCC)C1CCC2(C1)N(CC)C(=O)c1c(O)c(=O)c(-c3nnc(Cc4ccc(F)cc4F)s3)cn1N2C` (stereo not drawn) [Compound 38], for which the IC50 under setting [4] was found to be 95.4 nM.
Regarding `CCN1C(=O)c2c(O)c(=O)c(-c3nnc(Cc4ccc(F)cc4F)s3)cn2N(C)C12CC[C@@H]1C[C@@H]12` (stereo partly drawn) [Compound 39], the IC50 runs as follows: under setting [6], 0.213 nM; under setting [1], 77.7 nM.
Regarding `CCN1C(=O)c2c(O)c(=O)c(-c3nnc(Cc4ccc(F)cc4F)s3)cn2N(C)C1CC(C)O` (stereo not drawn) [Compound 41], the IC50 came to 3.15 nM under setting [6] and 73.2 nM under setting [1].
`CCN1C(=O)c2c(O)c(=O)c(-c3nnc(Cc4ccc(F)cc4F)s3)cn2N(C)C12CCCCC(O)C2` (stereo not drawn) [Compound 45]: the IC50 is, setting by setting: under setting [6], 4.07 nM; under setting [2], 122 nM.
As to `CCN1C(=O)c2c(O)c(=O)c(-c3nnc(Cc4ccc(F)cc4F)s3)cn2N(C)C12CCC(c1nc(C)no1)CC2` (stereo not drawn) [Compound 46], the IC50 runs as follows: under setting [6], 6.78 nM; under setting [2], 139 nM.
Consider `CCN1C(=O)c2c(O)c(=O)c(-c3nnc(Cc4ccc(F)cc4F)s3)cn2N(C)C12CCC(c1nc(C)no1)CC2` (stereo not drawn) [Compound 47], for which the IC50 under setting [3] was determined as 11.6 nM and the IC50 under setting [5] turned out to be 186 nM.
Regarding `CCN1C(=O)c2c(O)c(=O)c(-c3nnc(Cc4ccc(F)cc4F)s3)cn2N(C)C12CCC(C(F)(F)F)CC2` (stereo not drawn) [Compound 49], the IC50 reads like this: under setting [6], 19.8 nM; under setting [5], 406 nM.
As to `CCN1C(=O)c2c(O)c(=O)c(-c3nnc(Cc4ccc(F)cc4F)s3)cn2N(C)C12CCC(C(F)(F)F)CC2` (stereo not drawn) [Compound 50], the IC50 turned out to be 25.6 nM under setting [3] and 5380 nM under setting [5].
In the case of `CCN1C(=O)c2c(O)c(=O)c(-c3nnc(Cc4ccc(F)cc4F)s3)cn2N(C)C12CCC(O)CC2` (stereo not drawn) [Compound 51], the IC50 runs as follows: under setting [2], 204 nM; under setting [3], 8.5 nM.
Regarding `CCN1C(=O)c2c(O)c(=O)c(-c3nnc(Cc4ccc(F)cc4F)s3)cn2N(C)C12CCC(O)CC2` (stereo not drawn) [Compound 52], the IC50 reads like this: under setting [3], 2.33 nM; under setting [5], 130 nM.
Regarding `CCN1C(=O)c2c(O)c(=O)c(-c3nnc(Cc4ccc(F)cc4F)s3)cn2N(C)C12CCC(Oc1ccccc1)CC2` (stereo not drawn) [Compound 53], the IC50 under setting [2] was found to be 1030 nM and the IC50 under setting [3] amounted to 15.7 nM.
For `CCN1C(=O)c2c(O)c(=O)c(-c3nnc(Cc4ccc(F)cc4F)s3)cn2N(C)C12CCC(Oc1ccccc1)CC2` (stereo not drawn) [Compound 54], the IC50 runs as follows: under setting [3], 82.8 nM; under setting [5], 1470 nM.
As to `CCN1C(=O)c2c(O)c(=O)c(-c3nnc(Cc4ccc(F)cc4F)s3)cn2N(C)C12CCC(CO)CC2` (stereo not drawn) [Compound 55], the IC50 runs as follows: under setting [6], 6.46 nM; under setting [2], 279 nM.
For `CCN1C(=O)c2c(O)c(=O)c(-c3nnc(Cc4ccc(F)cc4F)s3)cn2N(C)C12CCC(F)(F)CC2` [Compound 56], the IC50 runs as follows: under setting [6], 12 nM; under setting [2], 1980 nM.
In the same order, the values of `CCc1noc(C2CCC3(CC2)N(CC)C(=O)c2c(O)c(=O)c(-c4nnc(Cc5ccc(F)cc5F)s4)cn2N3C)n1` (stereo not drawn) [Compound 57] are 18.1 nM and 145 nM.
Consider `CCc1noc(C2CCC3(CC2)N(CC)C(=O)c2c(O)c(=O)c(-c4nnc(Cc5ccc(F)cc5F)s4)cn2N3C)n1` (stereo not drawn) [Compound 58], for which the IC50 reads like this: under setting [3], 14.1 nM; under setting [5], 228 nM.
`CCN1C(=O)c2c(O)c(=O)c(-c3nnc(Cc4ccc(F)cc4F)s3)cn2N(C)C12CCC(C)(OC)CC2` (stereo not drawn) [Compound 59]: the IC50 runs as follows: under setting [6], 8.66 nM; under setting [2], 124 nM.
As for `CCCOC1CCC2(CC1)N(CC)C(=O)c1c(O)c(=O)c(-c3nnc(Cc4ccc(F)cc4F)s3)cn1N2C` (stereo not drawn) [Compound 60], the IC50 was 226 nM under setting [2] and 10.8 nM under setting [3].
Turning to `CCCOC1CCC2(CC1)N(CC)C(=O)c1c(O)c(=O)c(-c3nnc(Cc4ccc(F)cc4F)s3)cn1N2C` (stereo not drawn) [Compound 61], the IC50 runs as follows: under setting [3], 23.8 nM; under setting [5], 221 nM.
On to `CCN1C(=O)c2c(O)c(=O)c(-c3nnc(Cc4ccc(F)cc4F)s3)cn2N(C)C12CCC(OC(C)C)CC2` (stereo not drawn) [Compound 62], for which the IC50 stood at 8.11 nM under setting [3] and 159 nM under setting [5].
Regarding `CCN1C(=O)c2c(O)c(=O)c(-c3nnc(Cc4ccc(F)cc4F)s3)cn2N(C)C12CCC(OC(C)C)CC2` (stereo not drawn) [Compound 63], the IC50 under setting [3] was 27.6 nM and the IC50 under setting [5] turned out to be 391 nM.
Turning to `CCN1C(=O)c2c(O)c(=O)c(-c3nnc(Cc4ccc(F)cc4F)s3)cn2N(C)C12CCC(OCCOC)CC2` (stereo not drawn) [Compound 64], the IC50 by setting is: under setting [6], 3.3 nM; under setting [2], 77.2 nM.
With `CCN1C(=O)c2c(O)c(=O)c(-c3nnc(Cc4ccc(F)cc4F)s3)cn2N(C)C12CCC(OCCOC)CC2` (stereo not drawn) [Compound 65], the IC50 came to 6.27 nM under setting [3] and 123 nM under setting [5].
Consider `CCN1C(=O)c2c(O)c(=O)c(-c3nnc(Cc4ccc(F)cc4F)s3)cn2N(C)C12CCC(OCCOCCOC)CC2` (stereo not drawn) [Compound 66], for which the IC50 stood at 12 nM under setting [6] and 93.9 nM under setting [2].
For the molecule `CCN1C(=O)c2c(O)c(=O)c(-c3nnc(Cc4ccc(F)cc4F)s3)cn2N(C)C12CCC(OCCOCCOC)CC2` (stereo not drawn) [Compound 67], the IC50 under setting [3] came out at 12.5 nM and the IC50 under setting [5] was 160 nM.
For `CN1C(=O)c2c(O)c(=O)c(-c3nnc(Cc4ccc(F)cc4F)s3)cn2N(C)C12CCC(OC(=O)C(Cl)Cl)CC2` (stereo not drawn) [Compound 68], the IC50 under setting [1] amounted to 10.5 nM.
For the molecule `CN1C(=O)c2c(O)c(=O)c(-c3nnc(Cc4ccc(F)cc4F)s3)cn2N(C)C12CCC(C)(O)CC2` (stereo not drawn) [Compound 69], the IC50 amounted to 22.6 nM under setting [3] and 84.7 nM under setting [4].
With `CN1C(=O)c2c(O)c(=O)c(-c3nnc(Cc4ccc(F)cc4F)s3)cn2N(C)C12CCC(C)(O)CC2` (stereo not drawn) [Compound 70], the IC50 by setting is: under setting [3], 9.9 nM; under setting [4], 39.1 nM.
Turning to `COC1(C)CCC2(CC1)N(C)C(=O)c1c(O)c(=O)c(-c3nnc(Cc4ccc(F)cc4F)s3)cn1N2C` (stereo not drawn) [Compound 72], the IC50 is, setting by setting: under setting [6], 6.07 nM; under setting [1], 9.93 nM.
Turning to `COC1(C)CCC2(CC1)N(C)C(=O)c1c(O)c(=O)c(-c3nnc(Cc4ccc(F)cc4F)s3)cn1N2C` (stereo not drawn) [Compound 73], the IC50 runs as follows: under setting [3], 7.04 nM; under setting [4], 11.9 nM.
Take `CN1C(=O)c2c(O)c(=O)c(-c3nnc(Cc4ccc(F)cc4F)s3)cn2N(C)C12CCC(CO)CC2` (stereo not drawn) [Compound 74]: the IC50 runs as follows: under setting [6], 6.84 nM; under setting [1], 23.6 nM.
Turning to `CN1C(=O)c2c(O)c(=O)c(-c3nnc(Cc4ccc(F)cc4F)s3)cn2N(C)C12CCC(N)CC2` (stereo not drawn) [Compound 75], the IC50 came to 5.02 nM under setting [6] and 35.3 nM under setting [1].
Take `CN1C(=O)c2c(O)c(=O)c(-c3nnc(Cc4ccc(F)cc4F)s3)cn2N(C)C12CCCCCC2` [Compound 76]: the IC50 is 17.3 nM under setting [6], 23.6 nM under setting [1] and 761 nM under setting [2].
`CN1C(=O)c2c(O)c(=O)c(-c3nnc(Cc4ccc(F)cc4F)s3)cn2N(C)C12C[C@H]1CC(O)C[C@H]1C2` (stereo partly drawn) [Compound 77]: the IC50 by setting is: under setting [6], 12.8 nM; under setting [1], 58 nM.
